Test results from US6737383B1, “Herbicidal oxadiazolidines” (priority 1999, dated 2004).

Columns and labels:
sugar beet = test: Test B pre/postemergence sugar beet; type: in vivo, Beta vulgaris
Method in brief: (§1)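 Response is a visual 0-to-10 score relative to untreated plants, where 0 means no effect and 10 means complete control, taken twelve to sixteen days after application. Treatments went onto soil at planting and onto foliage of 1- to 4-leaf plants, using a surfactant-containing non-phytotoxic solvent.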

wheat = test: Test B pre/postemergence wheat; type: in vivo, Triticum aestivum
Method in brief: as §1

corn = test: Test B pre/postemergence corn; type: in vivo, Zea mays
Method in brief: as §1

cocklebur = test: Test B pre/postemergence cocklebur; type: in vivo, Xanthium strumarium
Method in brief: as §1

wild oat = test: Test B pre/postemergence wild oat; type: in vivo, Avena fatua
Method in brief: as §1

blackgrass = test: Test B pre/postemergence blackgrass; type: in vivo, Alopecurus myosuroides
Method in brief: as §1

rape = test: Test B pre/postemergence rape; type: in vivo, Brassica napus
Method in brief: as §1

smallflower flatsedge = test: Test B flood test smallflower flatsedge; type: in vivo, Cyperus difformis
Method in brief: (§2)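 Flood test on plants grown to the 2-leaf stage; treated plants kept in greenhouse twelve to sixteen days, then visually rated against controls on a 0 (no effect) to 10 (complete control) scale.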

velvetleaf = test: Test B pre/postemergence velvetleaf; type: in vivo, Abutilon theophrasti
Method in brief: as §1

bedstraw = test: Test B pre/postemergence bedstraw; type: in vivo, Galium aparine
Method in brief: as §1

crabgrass = test: Test B pre/postemergence crabgrass; type: in vivo, Digitaria sanguinalis
Method in brief: as §1

morningglory = test: Test B pre/postemergence morningglory; type: in vivo, Ipomoea hederacea
Method in brief: as §1

surinam grass = test: Test B pre/postemergence surinam grass; type: in vivo, Brachiaria decumbens
Method in brief: as §1

duck salad = test: Test B flood test duck salad; type: in vivo, Heteranthera limosa
Method in brief: as §2

purple nutsedge = test: Test B pre/postemergence purple nutsedge; type: in vivo, Cyperus rotundus
Method in brief: as §1

pigweed = test: Test B pre/postemergence pigweed; type: in vivo, Amaranthus retroflexus
Method in brief: as §1

[1] = Postemergence, Rate 62 g/ha, scale 0 to 10, 0 is no effect, 10 is complete control
[2] = Postemergence, Rate 250 g/ha, scale 0 to 10, 0 no effect, 10 complete control
[3] = Preemergence, Rate 62 g/ha, scale 0 to 10 (0 no effect, 10 complete control)
[4] = Preemergence, Rate 125 g/ha, scale 0 to 10 (0 no effect, 10 complete control)
[5] = Preemergence, Rate 250 g/ha, scale of 0 to 10 where 0 is no effect and 10 is complete control
[6] = Preemergence, Rate 500 g/ha, scale 0 (no effect) to 10 (complete control)
[7] = Rate 125 g/ha, Postemergence, scale 0 to 10, 0 no effect, 10 complete control
[8] = Rate 500 g/ha, Postemergence, scale 0 to 10, 0 no effect, 10 complete control
[9] = Rate 62 g/ha, headed Pre-emergence (flood test species), scale 0 to 10 (0 no effect, 10 complete control)
[10] = Rate 125 g/ha, Pre-emergence, flood test species, scale 0 to 10 where 0 is no effect and 10 is complete control
[11] = Rate 250 g/ha, headed Pre-emergence (flood test species), scale 0 to 10 (0 no effect, 10 complete control)
[12] = Rate 500 g/ha, headed Pre-emergence (flood test species), scale 0 to 10 (0 no effect, 10 complete control)

Cc1ccccc1-n1c(=O)on(C(=O)N(Cc2ccccc2)C(C)C)c1=O [Compound 72]
0: Sugarbeets plant response rating (sugar beet; [1]) | Sugarbeets plant response rating (sugar beet; [2]) | Sugarbeets plant response rating (sugar beet; [3]) | Plant response rating, Sugarbeets (sugar beet; [4]) | Plant response rating, Sugarbeets (sugar beet; [5]) | Sugarbeets plant response rating (sugar beet; [6]) | Sugarbeets plant response rating (sugar beet; [7]) | Sugarbeets plant response rating (sugar beet; [8]) | Wheat plant response rating (wheat; [1]) | Wheat plant response rating (wheat; [2]) | Wheat plant response rating (wheat; [3]) | Plant response rating, Wheat (wheat; [4]) | Plant response rating, Wheat (wheat; [5]) | Wheat plant response rating (wheat; [6]) | Wheat plant response rating (wheat; [7]) | Wheat plant response rating (wheat; [8]) | Corn plant response rating (corn; [1]) | Corn plant response rating (corn; [2]) | Corn plant response rating (corn; [3]) | Plant response rating, Corn (corn; [4]) | Plant response rating, Corn (corn; [5]) | Corn plant response rating (corn; [6]) | Corn plant response rating (corn; [7]) | Corn plant response rating (corn; [8]) | Cocklebur plant response rating (cocklebur; [1]) | Cocklebur plant response rating (cocklebur; [2]) | Cocklebur plant response rating (cocklebur; [3]) | Plant response rating, Cocklebur (cocklebur; [4]) | Plant response rating, Cocklebur (cocklebur; [5]) | Cocklebur plant response rating (cocklebur; [6]) | Cocklebur plant response rating (cocklebur; [7]) | Cocklebur plant response rating (cocklebur; [8]) | Wild oats plant response rating (wild oat; [1]) | Wild oats plant response rating (wild oat; [2]) | Wild oats plant response rating (wild oat; [3]) | Plant response rating, Wild oats (wild oat; [4]) | Plant response rating, Wild oats (wild oat; [5]) | Wild oats plant response rating (wild oat; [6]) | Wild oats plant response rating (wild oat; [7]) | Wild oats plant response rating (wild oat; [8]) | Blackgrass plant response rating (blackgrass; [1]) | Blackgrass plant response rating (blackgrass; [2]) | Blackgrass plant response rating (blackgrass; [3]) | Plant response rating, Blackgrass (blackgrass; [4]) | Plant response rating, Blackgrass (blackgrass; [5]) | Blackgrass plant response rating (blackgrass; [6]) | Blackgrass plant response rating (blackgrass; [7]) | Blackgrass plant response rating (blackgrass; [8]) | Rape plant response rating (rape; [1]) | Rape plant response rating (rape; [2]) | Rape plant response rating (rape; [3]) | Plant response rating, Rape (rape; [4]) | Plant response rating, Rape (rape; [5]) | Rape plant response rating (rape; [6]) | Rape plant response rating (rape; [7]) | Rape plant response rating (rape; [8]) | S. Flatsedge plant response rating (smallflower flatsedge; [9]) | S. Flatsedge plant response rating (smallflower flatsedge; [10]) | S. Flatsedge plant response rating (smallflower flatsedge; [11]) | Plant response rating, S. Flatsedge (smallflower flatsedge; [12]) | Velvetleaf plant response rating (velvetleaf; [1]) | Velvetleaf plant response rating (velvetleaf; [2]) | Velvetleaf plant response rating (velvetleaf; [3]) | Plant response rating, Velvetleaf (velvetleaf; [4]) | Plant response rating, Velvetleaf (velvetleaf; [5]) | Velvetleaf plant response rating (velvetleaf; [6]) | Velvetleaf plant response rating (velvetleaf; [7]) | Velvetleaf plant response rating (velvetleaf; [8]) | Bedstraw plant response rating (bedstraw; [1]) | Bedstraw plant response rating (bedstraw; [2]) | Bedstraw plant response rating (bedstraw; [3]) | Plant response rating, Bedstraw (bedstraw; [4]) | Plant response rating, Bedstraw (bedstraw; [5]) | Bedstraw plant response rating (bedstraw; [6]) | Bedstraw plant response rating (bedstraw; [7]) | Bedstraw plant response rating (bedstraw; [8]) | Crabgrass plant response rating (crabgrass; [1]) | Crabgrass plant response rating (crabgrass; [2]) | Crabgrass plant response rating (crabgrass; [3]) | Plant response rating, Crabgrass (crabgrass; [4]) | Plant response rating, Crabgrass (crabgrass; [5]) | Crabgrass plant response rating (crabgrass; [7]) | Crabgrass plant response rating (crabgrass; [8]) | Morningglory plant response rating (morningglory; [1]) | Morningglory plant response rating (morningglory; [2]) | Morningglory plant response rating (morningglory; [3]) | Plant response rating, Morningglory (morningglory; [4]) | Plant response rating, Morningglory (morningglory; [5]) | Morningglory plant response rating (morningglory; [6]) | Morningglory plant response rating (morningglory; [7]) | Morningglory plant response rating (morningglory; [8]) | B. signalgrass plant response rating (surinam grass; [1]) | B. signalgrass plant response rating (surinam grass; [2]) | B. signalgrass plant response rating (surinam grass; [3]) | Plant response rating, B. signalgrass (surinam grass; [4]) | Plant response rating, B. signalgrass (surinam grass; [5]) | B. signalgrass plant response rating (surinam grass; [6]) | B. signalgrass plant response rating (surinam grass; [7]) | B. signalgrass plant response rating (surinam grass; Rate 500 g/ha, Postemergence, scale of 0 to 10 where 0 is no effect and 10 is complete control) | Ducksalad plant response rating (duck salad; [9]) | Ducksalad plant response rating (duck salad; [10]) | Ducksalad plant response rating (duck salad; [11]) | Plant response rating, Ducksalad (duck salad; [12]) | Nutsedge plant response rating (purple nutsedge; [1]) | Nutsedge plant response rating (purple nutsedge; [2]) | Nutsedge plant response rating (purple nutsedge; [3]) | Plant response rating, Nutsedge (purple nutsedge; [4]) | Plant response rating, Nutsedge (purple nutsedge; [5]) | Nutsedge plant response rating (purple nutsedge; [6]) | Nutsedge plant response rating (purple nutsedge; [7]) | Nutsedge plant response rating (purple nutsedge; [8]) | Redroot pigweed plant response rating (pigweed; [1]) | Redroot pigweed plant response rating (pigweed; [2]) | Redroot pigweed plant response rating (pigweed; [3]) | Plant response rating, Redroot pigweed (pigweed; [4]) | Plant response rating, Redroot pigweed (pigweed; [5]) | Redroot pigweed plant response rating (pigweed; [6]) | Redroot pigweed plant response rating (pigweed; [7]) | Redroot pigweed plant response rating (pigweed; [8])
4: Crabgrass plant response rating (crabgrass; [6])
